PubChem BioAssay (NCI)
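Five concentrations, 48 hours, 96-well plates. GI50 is the concentration that inhibits growth by half. TGI marks complete inhibition of growth.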

Tests used:
Test in all cases: NCI-60 cell line screen, 48 h
786-0 renal = system: 786-0 renal
A498 renal = system: A498 renal
A549 NSCLC = system: A549 NSCLC
ACHN renal = system: ACHN renal
BT-549 breast = system: BT-549 breast
CAKI-1 renal = system: CAKI-1 renal
CCRF-CEM leukemia = system: CCRF-CEM leukemia
COLO 205 colon = system: COLO 205 colon
DU-145 prostate = system: DU-145 prostate
EKVX NSCLC = system: EKVX NSCLC
HCC-2998 colon = system: HCC-2998 colon
HCT-116 colon = system: HCT-116 colon
HCT-15 colon = system: HCT-15 colon
HL-60(TB) leukemia = system: HL-60(TB) leukemia
HOP-62 NSCLC = system: HOP-62 NSCLC
HOP-92 NSCLC = system: HOP-92 NSCLC
HS 578T breast = system: HS 578T breast
HT29 colon = system: HT29 colon
IGROV1 ovarian = system: IGROV1 ovarian
K-562 leukemia = system: K-562 leukemia
KM12 colon = system: KM12 colon
LOX IMVI melanoma = system: LOX IMVI melanoma
M14 melanoma = system: M14 melanoma
MALME-3M melanoma = system: MALME-3M melanoma
MCF7 breast = system: MCF7 breast
MDA-MB-231 breast = system: MDA-MB-231 breast
MDA-MB-435 = system: MDA-MB-435
MDA-MB-468 breast = system: MDA-MB-468 breast
MOLT-4 leukemia = system: MOLT-4 leukemia
NCI-H226 lung = system: NCI-H226 lung

`COc1ccc(-c2nnc3c(/C=C/c4ccc(Br)cc4)nc4ccccc4n23)cc1` showed a GI50 (786-0 renal) of 1.54 µM, a TGI (786-0 renal) of 3.81 µM and a GI50 (A498 renal) of 22.8 µM. It also gave a TGI (A498 renal) of 91.4 µM, a GI50 (A549 NSCLC) of 12 µM and a TGI (A549 NSCLC) of 24.4 µM. It also gave a GI50 (ACHN renal) of 2.55 µM, a TGI (ACHN renal) of 9.06 µM and a GI50 (BT-549 breast) of 2.37 µM. The TGI (BT-549 breast) was 15.3 µM, the GI50 (CAKI-1 renal) was 11.3 µM and the TGI (CAKI-1 renal) was 23.3 µM. For the same compound, the GI50 (CCRF-CEM leukemia) was 1.39 µM, the TGI (CCRF-CEM leukemia) was 4.9 µM and the GI50 (COLO 205 colon) was 4.19 µM. For the same compound, the TGI (COLO 205 colon) was 15.1 µM, the GI50 (DU-145 prostate) was 5.24 µM and the TGI (DU-145 prostate) was 17.7 µM. It also gave a GI50 (EKVX NSCLC) of 12.1 µM, a TGI (EKVX NSCLC) of 26.1 µM and a GI50 (HCC-2998 colon) of 12.1 µM. It also gave a TGI (HCC-2998 colon) of 24.5 µM, a GI50 (HCT-116 colon) of 1.47 µM and a TGI (HCT-116 colon) of 3.2 µM. The GI50 (HCT-15 colon) was 1.47 µM, the TGI (HCT-15 colon) was 3.25 µM and the GI50 (HL-60(TB) leukemia) was 3.43 µM. It also gave a TGI (HL-60(TB) leukemia) of 16.8 µM, a GI50 (HOP-62 NSCLC) of 15.5 µM and a TGI (HOP-62 NSCLC) of 32 µM. It also gave a GI50 (HOP-92 NSCLC) of 1.14 µM, a TGI (HOP-92 NSCLC) of 7.29 µM and a GI50 (HS 578T breast) of 16.7 µM. It also gave a TGI (HS 578T breast) of 57 µM, a GI50 (HT29 colon) of 2.56 µM and a TGI (HT29 colon) of 9.29 µM. It also gave a GI50 (IGROV1 ovarian) of 10.7 µM, a TGI (IGROV1 ovarian) of 22.6 µM and a GI50 (K-562 leukemia) of 0.431 µM. It also gave a TGI (K-562 leukemia) of 13.1 µM, a GI50 (KM12 colon) of 12.6 µM and a TGI (KM12 colon) of 25.1 µM. For the same compound, the GI50 (LOX IMVI melanoma) was 0.883 µM, the TGI (LOX IMVI melanoma) was 2.11 µM and the GI50 (M14 melanoma) was 2.41 µM. It also gave a TGI (M14 melanoma) of 10.2 µM, a GI50 (MALME-3M melanoma) of 1.3 µM and a TGI (MALME-3M melanoma) of 2.72 µM. For the same compound, the GI50 (MCF7 breast) was 2.8 µM, the TGI (MCF7 breast) was 14.9 µM and the GI50 (MDA-MB-231 breast) was 4.82 µM. The TGI (MDA-MB-231 breast) was 17.5 µM, the GI50 (MDA-MB-435) was 11.7 µM and the TGI (MDA-MB-435) was 23.9 µM. The GI50 (MDA-MB-468 breast) was 2.08 µM, the TGI (MDA-MB-468 breast) was 8.39 µM and the GI50 (MOLT-4 leukemia) was 2.7 µM. It also gave a TGI (MOLT-4 leukemia) of 12.1 µM and a GI50 (NCI-H226 lung) of 1.68 µM.
